We go through 29 compounds from patent US9255090B2, “Heterocyclyl derivatives and their use as prostaglandin D2 receptor modulators” (Actelion Pharmaceuticals Ltd., priority 2012, dated 2016).

In one test the target is hCRTH2 receptor (Homo sapiens (Human), UniProt Q9Y5Y4). The test is described as follows: hCRTH2 receptor membranes radioligand (3H-PGD2) displacement assay. In kind it is binding. To be noted: 3H-PGD2 radioligand displacement, HEK293-hCRTH2 membranes. An outline of the steps: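 HEK293-hCRTH2 membranes, 20 μg/well; 3H-PGD2 added at 2.5 nM; binding buffer 50 mM Tris, 10 mM MnCl2, 1 mM EDTA, pH 7.0; 90 min RT; GF/C filtration, scintillation count. Nonspecific binding: PGD2 at […].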
hCRTH2 receptor, sequence (Q9Y5Y4 whole entry): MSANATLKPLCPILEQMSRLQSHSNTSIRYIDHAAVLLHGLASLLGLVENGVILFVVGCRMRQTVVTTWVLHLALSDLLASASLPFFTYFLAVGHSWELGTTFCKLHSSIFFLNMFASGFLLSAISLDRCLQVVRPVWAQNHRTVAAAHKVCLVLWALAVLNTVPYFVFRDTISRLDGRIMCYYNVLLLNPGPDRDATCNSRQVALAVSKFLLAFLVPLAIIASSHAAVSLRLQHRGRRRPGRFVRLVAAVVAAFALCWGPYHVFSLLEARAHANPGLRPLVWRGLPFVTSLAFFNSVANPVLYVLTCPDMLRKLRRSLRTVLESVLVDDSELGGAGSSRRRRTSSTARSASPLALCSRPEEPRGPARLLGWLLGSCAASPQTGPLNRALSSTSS
A general note: Loss of bound radioactivity is the signal in a displacement assay; it reports binding, not function.

The test system of a further test is eosinophils. The test is described as follows: Eosinophil shape change assay with human plasma. The format is cell-based. To be noted: Homo sapiens, Eosinophil, human plasma (50%), PGD2 100 nM activation, antagonistic activity. The method, boiled down: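 Human polymorphonuclear cells stained with anti-CD49d-APC, combined with compound-preincubated human plasma (50% of final volume, 4×10^6 cells/ml) for 10 min at 37° C., then stimulated 5 min with 100 nM PGD2 and fixed. Flow cytometry scored percent eosinophils with increased forward scatter.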

The IC50 is the concentration at which inhibition is half-maximal. Low readings indicate inhibition by little substance, high ones a need for much substance. `COc1ccc(CC(=O)O)cc1-c1ccc(C#N)c2c1CN(C(=O)OCc1ccccc1)CC2` [Example 169, 8-(5-Carboxymethyl-2-methoxy-phenyl)-5-cyano-3,4-dihydro-1H-isoquinoline-2-carboxylic acid benzyl ester]: the IC50 at hCRTH2 receptor amounted to 9.17 nM; with eosinophils, 146 nM.
In the case of `CCOc1ccc(CC(=O)O)cc1-c1ccc(F)c2c1CN(C(=O)CC1COc3ccccc3C1)CC2` (racemic) [Example 332], the IC50 on hCRTH2 receptor is 11.8 nM; in the test with eosinophils, 15 nM.
For `COc1ccc(CC(=O)O)cc1-c1ccc(F)c2c1CN(C(=O)CC(C)(C)c1ccccc1)CC2` [Example 108, {3-[5-Fluoro-2-(3-methyl-3-phenyl-butyryl)-1,2,3,4-tetrahydro-isoquinolin-8-yl]-4-methoxy-phenyl}-acetic acid], the IC50 on hCRTH2 receptor is 10.1 nM; in the test with eosinophils, 92 nM.
For `CCOc1ccc(CC(=O)O)cc1-c1ccc(F)c2c1CN(C(=O)OCC1CC1)CC2` [Example 372, 8-(5-Carboxymethyl-2-ethoxy-phenyl)-5-fluoro-3,4-dihydro-1H-isoquinoline-2-carboxylic acid cyclopropylmethyl ester], in that order: 5.5 nM and 149 nM.
As to `COc1ccc(CC(=O)O)cc1-c1ccc(F)c2c1CN(C(=O)CCOc1ccc(F)cc1)CC2` [Example 42, (3-{5-Fluoro-2-[3-(4-fluoro-phenoxy)-propionyl]-1,2,3,4-tetrahydro-isoquinolin-8-yl}-4-methoxy-phenyl)-acetic acid], the concentration for half-maximal inhibition (IC50) turned out to be 8.76 nM at hCRTH2 receptor and 118 nM in the test with eosinophils.
For `CCOc1ccc(CC(=O)O)cc1-c1ccc(F)c2c1CN(C(=O)OC[C@H](C)c1ccccc1)CC2` [Example 374, 8-(5-Carboxymethyl-2-ethoxy-phenyl)-5-fluoro-3,4-dihydro-1H-isoquinoline-2-carboxylic acid (R)-2-phenyl-propyl ester], in that order: 4.2 nM and 28 nM.
In the same order, the values of `COc1cc(CC(=O)O)ccc1-c1ccc(F)c2c1CN(C(=O)CCCc1ccccc1F)CC2` [Example 185, (4-{5-Fluoro-2-[4-(2-fluoro-phenyl)-butyryl]-1,2,3,4-tetrahydro-isoquinolin-8-yl}-3-methoxy-phenyl)-acetic acid] are 1.28 nM and 97 nM.
In the same order, the values of `CC(C)(C)Oc1ccc(CC(=O)O)cc1-c1ccc(F)c2c1CN(C(=O)OCc1ccccc1)CC2` [Example 419, 8-(2-tert-Butoxy-5-carboxymethyl-phenyl)-5-fluoro-3,4-dihydro-1H-isoquinoline-2-carboxylic acid benzyl ester] are 2.8 nM and 35 nM.
As to `COc1cc(CC(=O)O)ccc1-c1ccc(F)c2c1CN(C(=O)C[C@@H](C)c1ccccc1)CC2` [Example 189, {4-[5-Fluoro-2-((R)-3-phenyl-butyryl)-1,2,3,4-tetrahydro-isoquinolin-8-yl]-3-methoxy-phenyl}-acetic acid], the IC50 on hCRTH2 receptor turned out to be 1.04 nM; in the test with eosinophils, 62 nM.
For `CCOc1ccc(CC(=O)O)cc1-c1ccc(F)c2c1CN(C(=O)CC(C)c1ccc(F)cc1)CC2` (stereo not shown) [Example 211, (4-Ethoxy-3-{5-fluoro-2-[3-(4-fluoro-phenyl)-butyryl]-1,2,3,4-tetrahydro-isoquinolin-8-yl}-phenyl)-acetic acid], in that order: 2.6 nM and 7 nM.
For `CCOc1cc(CC(=O)O)ccc1-c1ccc(F)c2c1CN(C(=O)C[C@@H](C)c1ccccc1)CC2` [Example 234, {3-Ethoxy-4-[5-fluoro-2-((R)-3-phenyl-butyryl)-1,2,3,4-tetrahydro-isoquinolin-8-yl]-phenyl}-acetic acid], in that order: 0.9 nM and 47 nM.
For `COc1cc(CC(=O)O)ccc1-c1ccc(F)c2c1CN(C(=O)OCc1ccccc1)CC2` [Example 166, 8-(4-Carboxymethyl-2-methoxy-phenyl)-5-fluoro-3,4-dihydro-1H-isoquinoline-2-carboxylic acid benzyl ester], in that order: 4.5 nM and 117 nM.
With `CCOc1ccc(CC(=O)O)cc1-c1ccc(F)c2c1CN(C(=O)CC(C)(C)c1ccccc1)CC2` [Example 225, {4-Ethoxy-3-[5-fluoro-2-(3-methyl-3-phenyl-butyryl)-1,2,3,4-tetrahydro-isoquinolin-8-yl]-phenyl}-acetic acid], the IC50 at hCRTH2 receptor was determined as 11.7 nM; in the test with eosinophils, 37 nM.
Turning to `COc1ccc(CC(=O)O)cc1-c1ccc(F)c2c1CN(C(=O)CC1OCCc3ccccc31)CC2` (racemic) [Example 257], the IC50 was 2.2 nM at hCRTH2 receptor and 35 nM with eosinophils.
In the same order, the values of `CCOc1cc(CC(=O)O)ccc1-c1ccc(F)c2c1CN(C(=O)CC1(c3ccccc3)CC1)CC2` [Example 230, (3-Ethoxy-4-{5-fluoro-2-[2-(1-phenyl-cyclopropyl)-acetyl]-1,2,3,4-tetrahydro-isoquinolin-8-yl}-phenyl)-acetic acid] are 1 nM and 19 nM.
For `COc1ccc(CC(=O)O)cc1-c1ccc(F)c2c1CN(C(=O)C[C@@H](C)c1ccccc1)CC2` [Example 106, {3-[5-Fluoro-2-((R)-3-phenyl-butyryl)-1,2,3,4-tetrahydro-isoquinolin-8-yl]-4-methoxy-phenyl}-acetic acid], in that order: 10.4 nM and 37 nM.
For the compound `COc1cc(CC(=O)O)ccc1-c1ccc(F)c2c1CN(C(=O)CC(C)(C)c1ccccc1)CC2` [Example 188, {4-[5-Fluoro-2-(3-methyl-3-phenyl-butyryl)-1,2,3,4-tetrahydro-isoquinolin-8-yl]-3-methoxy-phenyl}-acetic acid], the IC50 came to 0.53 nM on hCRTH2 receptor and 8 nM in the test with eosinophils.
Regarding `COc1cc(CC(=O)O)ccc1-c1ccc(F)c2c1CN(C(=O)CC1CCc3ccccc31)CC2` (racemic) [Example 360], the values for the half-inhibitory concentration (IC50) on hCRTH2 receptor and in the test with eosinophils were 6.1 nM and 30 nM, respectively.
Consider `CC(C)Oc1cc(CC(=O)O)ccc1-c1ccc(F)c2c1CN(C(=O)OCc1ccccc1)CC2` [Example 217, 8-(4-Carboxymethyl-2-isopropoxy-phenyl)-5-fluoro-3,4-dihydro-1H-isoquinoline-2-carboxylic acid benzyl ester], for which the IC50 was 2.3 nM on hCRTH2 receptor and 46 nM in the test with eosinophils.
Turning to `COc1ccc(CC(=O)O)cc1-c1ccc(F)c2c1CN(C(=O)CC1CCOc3cc(F)ccc31)CC2` (racemic) [Example 243], the values for the IC50 at hCRTH2 receptor and with eosinophils were 20.6 nM and 92 nM, respectively.
In the same order, the values of `COc1ccc(CC(=O)O)cc1-c1ccc(F)c2c1CN(C(=O)COCc1ccccc1Cl)CC2` [Example 58, (3-{2-[2-(2-Chloro-benzyloxy)-acetyl]-5-fluoro-1,2,3,4-tetrahydro-isoquinolin-8-yl}-4-methoxy-phenyl)-acetic acid] are 3.57 nM and 122 nM.
For `CCOc1cc(CC(=O)O)ccc1-c1ccc(F)c2c1CN(C(=O)OCc1ccc(F)cc1)CC2` [Example 404, 8-(4-Carboxymethyl-2-ethoxy-phenyl)-5-fluoro-3,4-dihydro-1H-isoquinoline-2-carboxylic acid 4-fluoro-benzyl ester], in that order: 2.3 nM and 10 nM.
For `CCOc1ccc(CC(=O)O)cc1-c1ccc(F)c2c1CN(C(=O)OCC1CCCCC1)CC2` [Example 396, 8-(5-Carboxymethyl-2-ethoxy-phenyl)-5-fluoro-3,4-dihydro-1H-isoquinoline-2-carboxylic acid cyclohexylmethyl ester], in that order: 2.6 nM and 18 nM.
As to `CCOc1cc(CC(=O)O)ccc1-c1ccc(F)c2c1CN(C(=O)OCc1ccccc1F)CC2` [Example 406, 8-(4-Carboxymethyl-2-ethoxy-phenyl)-5-fluoro-3,4-dihydro-1H-isoquinoline-2-carboxylic acid 2-fluoro-benzyl ester], the IC50 at hCRTH2 receptor was 7.7 nM; in the test on eosinophils it was 10 nM.
For `CCOc1ccc(CC(=O)O)cc1-c1ccc(F)c2c1CN(C(=O)OCc1ccccn1)CC2` [Example 394, 8-(5-Carboxymethyl-2-ethoxy-phenyl)-5-fluoro-3,4-dihydro-1H-isoquinoline-2-carboxylic acid pyridin-2-ylmethyl ester], in that order: 1.2 nM and 12 nM.
Turning to `CCOc1ccc(CC(=O)O)cc1-c1ccc(F)c2c1CN(C(=O)[C@@H]1C[C@H]1c1ccccn1)CC2` (racemic) [Example 330], the IC50 at hCRTH2 receptor was determined as 0.6 nM; in the test with eosinophils, 15 nM.
In the case of `COc1ccc(CC(=O)O)cc1-c1ccc(Cl)c2c1CN(C(=O)OCc1ccccc1)CC2` [Example 154, 8-(5-Carboxymethyl-2-methoxy-phenyl)-5-chloro-3,4-dihydro-1H-isoquinoline-2-carboxylic acid benzyl ester], the 50% inhibitory concentration (IC50) came out at 5.9 nM on hCRTH2 receptor and 307 nM in the test on eosinophils.
In the same order, the values of `CN(C)c1ccc(CC(=O)O)cc1-c1ccc(F)c2c1CN(C(=O)OCc1ccccc1)CC2` [Example 420, 8-(5-Carboxymethyl-2-dimethylamino-phenyl)-5-fluoro-3,4-dihydro-1H-isoquinoline-2-carboxylic acid benzyl ester] are 2.4 nM and 17 nM.
For `CC(C)Oc1ccc(OCC(=O)O)cc1-c1ccc(F)c2c1CN(C(=O)OCc1ccccc1)CC2` [Example 163, 8-(5-Carboxymethoxy-2-isopropoxy-phenyl)-5-fluoro-3,4-dihydro-1H-isoquinoline-2-carboxylic acid benzyl ester], in that order: 7.94 nM and 141 nM.
